Measured values reported in patent US11293931B2, “Quantitative profiling of progesterone metabolites for the prediction of spontaneous preterm delivery” (Indiana University Research and Technology Corporation, priority 2016, dated 2022).

Key:
[1] = system: total CALM expression; experiment: Gene array of calmodulin expression with progestogen treatment: total CALM (all three isoforms); format: cell-based, human; conditions: primary myometrial cells treated with a 1:10 M/G ratio
Procedure: (§1) The effect of progesterone or HPC treatment on calmodulin gene expression (CALM1, CALM2, CALM3) was further explored. Primary myometrial cells were treated with a 1:10 M/G ratio and a gene array used to assess calmodulin expression. […] The fold change in total CALM expression (trend line for all three isoforms) was approximately half with HPC treatment (4.4-fold) compared to progesterone (8.9-fold) or control treatments (8.3-fold).

[2] = system: CALM3; experiment: Gene array of calmodulin expression with progestogen treatment: CALM3; format: cell-based, human; conditions: primary myometrial cells treated with a 1:10 M/G ratio, compared to DMSO treated controls (FIG. 11)
Procedure: as §1

[3] = system: CALM1; experiment: Gene array of calmodulin expression with progestogen treatment: CALM1; format: cell-based, human; conditions: primary myometrial cells treated with a 1:10 M/G ratio, compared to DMSO treated controls (FIG. 11)
Procedure: as §1

[4] = system: CALM2; experiment: Gene array of calmodulin expression with progestogen treatment: CALM2; format: cell-based, human; conditions: primary myometrial cells treated with a 1:10 M/G ratio; for fold increase in CALM2 expression: compared to DMSO treated controls (FIG. 11)
Procedure: as §1

[5] = women with a prior history of spontaneous preterm birth; cited from earlier work

| Compound | fold change in total CALM expression (trend line for all three isoforms) [1] [fold] | change in CALM3 expression [2] | change in CALM1 expression [3] | reduction in CALM2 expression compared to progesterone treated cells [4] [%] | fold increase in CALM2 expression [4] [fold] | reduction in the risk of recurrent sPTB [5] |
| --- | --- | --- | --- | --- | --- | --- |
| CCCCCC(=O)O[C@]1(C(C)=O)CC[C@H]2[C@@H]3CCC4=CC(=O)CC[C@]4(C)[C@H]3CC[C@@]21C [HPC, 17α-hydroxyprogesterone caproate] | 4.4 | modest decreases | modest decreases | ~30 | 9 | 30-40% |
| CC(=O)[C@H]1CC[C@H]2[C@@H]3CCC4=CC(=O)CC[C@]4(C)[C@H]3CC[C@]12C [progesterone] | 8.9 | modest decreases | modest decreases |  | 13 |  |
